# Columns and labels:
# Format in all cases: functional, cell-based
# [1] = test system: CNE-2; test: Cytotoxicity against human CNE-2 cells incubated for 48 hrs by MTT assay; details: CNE-2, 48 h
# [2] = test system: NCI-H1299; test: Cytotoxicity against human NCI-H1299 cells
# [3] = test system: A549; test: Cytotoxicity against human A549 cells
# [4] = test system: HCT-116; test: Cytotoxicity against human HCT-116 cells
# [5] = test system: A2780; test: Antiproliferative activity against human A2780 cells
# [6] = test system: SK-OV-3; test: Antiproliferative activity against human SK-OV-3 cells
# [7] = Cytotoxicity against mouse P388 cells
# [8] = test system: KB; test: Cytotoxicity against human Vincristine-resistant KB cells; details: pooled result: one value given for 6 cell lines, strains, targets or settings
# [9] = test system: MCF7; test: Cytotoxicity against human MCF7 cells incubated for 48 hrs by neutral red dye based assay; details: MCF7, 48 h
# [10] = test system: A549; test: Cytotoxicity against human A549 cells incubated for 48 hrs by neutral red dye based assay; details: A549, 48 h
# [11] = test system: HCT-116; test: Cytotoxicity against human HCT-116 cells incubated for 48 hrs by neutral red dye based assay; details: HCT-116, 48 h
# [12] = test system: L5178Y; test: Cytotoxicity against mouse L5178Y cells incubated 72 hrs; details: for EC50: time 72 hrs, read-out: ED50 (the source's name); for IC50: 72 h
# [13] = test system: Panel NCI-60 (60 carcinoma cell lines); test: Cytotoxicity against human Panel NCI-60 (60 carcinoma cell lines)
# [14] = test system: L1210; test: Cytotoxicity against mouse L1210 cells
# [15] = test system: HeLa; test: Cytotoxicity against human HeLa cells
# [16] = test system: HL-60; test: Cytotoxicity against human HL-60 cells; details: Homo sapiens, HL-60; read-out: IC50
# [17] = test system: HepG2; test: Cytotoxicity against human HepG2 cells after 48 hrs incubation by SRB assay; details: HepG2, 48 h
# [18] = test system: Hep 3B2; test: Cytotoxicity against human Hep3B cells after 48 hrs incubation by SRB assay
# [19] = test system: MCF7; test: Cytotoxicity against human MCF7 cells
# [20] = test system: KB; test: Cytotoxicity against human KB cells; details: Homo sapiens, KB; read-out: IC50
smiles,measurement,setting,value
COc1c(O)c(=O)n2c3ccccc3c3ccnc1c32,IC50,[1],7.96 µg/mL
CC(=O)c1nc(C(=O)NCCc2ccc(O)cc2)cc2c1[nH]c1ccccc12,IC50,[2],37.9 µM
same,IC50,[3],37.9 µM
same,IC50,[4],37.9 µM
CC(=O)c1nc(C(=O)NCCc2ccccc2)cc2c1[nH]c1ccccc12,IC50,[2],37.4 µM
same,IC50,[3],37.4 µM
same,IC50,[4],37.4 µM
C=Cc1ncc(OC)c2c1[nH]c1c(OC)cccc12,IC50,[5],2.02 µg/mL
same,IC50,[6],11.9 µg/mL
C=Cc1ncc(OC)c2c3ccccc3n(OC)c12,IC50,[5],14.8 µM
same,IC50,[6],66.6 µM
O=c1ccc2nccc3c4cccc(O)c4n1c23,IC50,[1],13.4 µg/mL
N[C@@H]1CSCON2CCc3c([nH]c4cc(Br)ccc34)[C@H]12,IC50,[7],0.01 µg/mL
O=c1ccc2nccc3c4ccc(O)cc4n1c23,IC50,[7],1.5 µg/mL
same,IC50,[8],1.5 µg/mL
C=Cc1nccc2c1[nH]c1c(O)cccc12,IC50,[7],0.1 µg/mL
O=C1NCCc2c1[nH]c1ccccc21,IC50,[9],8.27 µg/mL
same,IC50,[10],10.1 µg/mL
same,IC50,[11],7.45 µg/mL
[O-][N+]1=C(C2=C[C@@]3(O)CC/C=C\CCCCN4CC[C@@H]2[C@]2(CC5/C=C\CCCCN5[C@H]23)C4)c2[nH]c3ccccc3c2CC1 (stereo partly drawn),EC50,[12],1.6 µg/mL
COc1ccc2c3cc[n+]([O-])c4ccc(=O)n(c2c1)c34,IC50,[7],3.8 µg/mL
same,IC50,[8],3.8 µg/mL
O=c1ccc2c3c(cc[n+]2[O-])c2ccc(O)cc2n13,IC50,[7],3.5 µg/mL
same,IC50,[8],3.5 µg/mL
[O-][n+]1ccc2c([nH]c3ccccc32)c1C1=C[C@@]2(O)CC/C=C\CCCCN3CC[C@@H]1[C@]1(CC4/C=C\CCCCN4[C@H]12)C3 (stereo partly drawn),EC50,[12],1.6 µg/mL
[O-][n+]1ccc2c([nH]c3ccccc32)c1C1=C[C@@]2(O)CC/C=C\CCCCN3CC[C@@H]1[C@]1(CC/C=C\CCCCN[C@H]12)C3,EC50,[12],3.2 µg/mL
COc1ccc2c3ccnc4ccc(=O)n(c2c1)c43,IC50,[7],1.4 µg/mL
same,IC50,[8],1.4 µg/mL
Fc1ccc(-c2nc(-c3nc4ccc(Cl)cc4[nH]3)cc3c2[nH]c2ccccc23)cc1,IC50,[13],0.3 µM
COc1ccc2nc(-c3cc4c([nH]c5ccccc54)c(-c4ccc(F)c(F)c4)n3)[nH]c2c1,IC50,[13],0.3 µM
Cn1c2cnccc2c2c(Br)c(O)ccc21,IC50,[14],2.4 µg/mL
same,IC50,[12],1.8 µg/mL
COc1ccccc1-c1c(-c2ccccc2)ncc2[nH]c3ccccc3c12,IC50,[3],8.2 µM
same,IC50,[15],20.8 µM
COc1ccc(-c2nc(-c3nc4ccc(OC)cc4[nH]3)cc3c2[nH]c2ccccc23)cc1,IC50,[13],0.3 µM
COc1ccc(-c2nc(-c3nc4ccc(F)cc4[nH]3)cc3c2[nH]c2ccccc23)cc1,IC50,[13],0.3 µM
C[n+]1ccc2c3ccccc3n3c2c1CC(=O)C3=O,IC50,[1],23.7 µg/mL
Nc1nccc(C2=NCCc3c2[nH]c2ccccc32)n1,IC50,[9],2.81 µg/mL
same,IC50,[10],1.92 µg/mL
same,IC50,[11],0.59 µg/mL
O=C1CCCCN2[C@@H](C1)C[C@]13CN4CCCC/C=C\CC[C@](O)(C=C(c5nccc6c5[nH]c5c(O)cccc56)[C@@H]1CC4)[C@H]23,IC50,[7],5 µg/mL
Nc1nccc(-c2nccc3c2[nH]c2c([C@@H]4c5ccccc5N=C5[C@@H](O)CCN54)c(O)ccc23)n1,IC50,[3],55.7 µM
same,IC50,[16],39 µM
CNC(=O)CCCc1nccc2c1[nH]c1ccccc12,IC50,[9],3.5 µg/mL
same,IC50,[10],2.15 µg/mL
same,IC50,[11],0.67 µg/mL
COc1c(OC)c2nccc3c4cc(O)ccc4n(c1=O)c23,IC50,[1],11.6 µg/mL
COc1ccc2c3c([nH]c2c1)[C@]1(NCC3)C(C)=C(C)c2nc3ccccc3c(=O)n21,IC50,[16],9.4 µM
O[C@H]1[C@H]2[C@@H]3c4[nH]c5ccccc5c4CCN3CN3CCCC/C=C\CC[C@@]45CN(CCCC/C=C\CC[C@@]1(O)[C@H]34)CC[C@@H]25,IC50,[14],4.4 µg/mL
COc1nccc2c1[nH]c1ccccc12,IC50,[5],9.72 µg/mL
same,IC50,[6],22.3 µg/mL
C=Cc1ncc(OC)c2c1[nH]c1c(O)cccc12,IC50,[5],8.47 µM
same,IC50,[6],16.3 µM
O[C@]12C=C(C3NCCc4c3[nH]c3ccccc43)[C@@H]3CCN(CCCC/C=C\CC1)C[C@@]31CC/C=C\CCCCN[C@H]12 (stereo partly drawn),IC50,[14],1.3 µg/mL
COc1cnc(C(=O)[C@@H](Cc2nccc3c2[nH]c2ccccc23)OC)c2[nH]c3ccccc3c12,IC50,[17],33.9 µM
same,IC50,[18],> 50 µM
CC(C=O)CNc1nccc(-c2nccc3c2[nH]c2ccccc23)n1 (stereo not drawn),IC50,[19],6.05 µM
same,IC50,[4],3.35 µM
COc1cc(-c2nc(C(=O)N[C@@H](Cc3c[nH]c4ccccc34)C(=O)N[C@@H](Cc3c[nH]c4ccccc34)C(=O)N[C@@H](CCSC)C(=O)OCc3ccccc3)cc3c2[nH]c2ccccc23)ccc1O,IC50,[16],16 µM
Oc1ccc2[nH]c3c(C4=C[C@@]5(O)CC/C=C\CCCCN6CC[C@@H]4[C@@]4(C6)CC67CCC(CCCN6[C@H]45)O7)nccc3c2c1,IC50,[20],7.9 µg/mL
Oc1ccc2[nH]c3c(C4=C[C@@]5(O)CC/C=C\CCCCN6CC[C@@H]4[C@]4(CC7/C=C\CCCCN7[C@H]45)C6)nccc3c2c1 (stereo partly drawn),IC50,[20],7.3 µg/mL
COc1cnc(C(=O)[C@@H](CC(=O)c2nccc3c2[nH]c2ccccc23)OC)c2[nH]c3ccccc3c12,IC50,[17],> 50 µM
same,IC50,[18],31.4 µM
O[C@]12C=C(c3nccc4c3[nH]c3ccccc34)[C@@H]3CCN(CCCC/C=C\CC1)C[C@@]31CC34CCC(CCCN3[C@H]12)O4,EC50,[12],1.8 µg/mL
COc1ccc2c(c1)NC1C2CCN2C(=O)[C@]34C5Nc6cc(OC)ccc6C5CCN3[C@]12C4(C)C (stereo partly drawn),IC50,[16],5.8 µM
CNc1nccc(-c2nccc3c2[nH]c2ccccc23)n1,IC50,[19],4.33 µM
same,IC50,[4],2.9 µM
COc1ccc2c3c([nH]c2c1)-c1c(C(=O)c2ncc4ccccc4n2)ccn1CC3,IC50,[16],13.6 µM
COc1cnc(C(=O)[C@H](CC(=O)c2nccc3c2[nH]c2ccccc23)OC)c2[nH]c3ccccc3c12,IC50,[17],43.9 µM
same,IC50,[18],18.6 µM
COc1cnc(C(=O)[C@H](Cc2nccc3c2[nH]c2ccccc23)OC)c2[nH]c3ccccc3c12,IC50,[17],27.5 µM
same,IC50,[18],46.2 µM
C=Cc1ncc(OC)c2c1[nH]c1ccccc12,IC50,[5],4.77 µg/mL
same,IC50,[6],15.7 µg/mL
"COc1c(OC)c2nccc3c4ccccc4n(c1=O)c23 [4,5-DIMETHOXYCANTHIN-6-ONE]",IC50,[1],9.86 µg/mL
Nc1nccc(-c2nccc3c2[nH]c2ccccc23)n1 [ANNOMONTINE],IC50,[9],1.21 µg/mL
same,IC50,[10],1.09 µg/mL
same,IC50,[11],0.42 µg/mL
COc1cccc2c1C(=O)c1c(O)c3c(c(O)c1C2=O)C[C@@](O)(C(=O)CO)C[C@@H]3O[C@H]1C[C@H](N)[C@H](O)[C@H](C)O1 [DOXORUBICIN],IC50,[4],0.39 µM
CC(C)CC(N)c1nccc2c1[nH]c1cc(Br)ccc12 (stereo not drawn) [EUDISTALBIN A],IC50,[20],3.2 µg/mL
CN[C@H](CSC)c1nccc2c1[nH]c1ccc(O)c(Br)c12 [EUDISTOMIDIN C],IC50,[12],0.42 µg/mL
O[C@]12C=C(c3nccc4c3[nH]c3ccccc34)[C@@H]3CCN(CCCC/C=C\CC1)C[C@@]31C[C@@H]3/C=C\CCCCN3[C@H]12 [MANZAMINE A],IC50,[7],0.07 µg/mL
C1=C\CC[C@]23CN4CCCC/C=C\CC[C@@]5(O[C@H]5[C@@H](c5nccc6c5[nH]c5ccccc56)[C@@H]2CC4)[C@@H]3NCCCC/1 [MANZAMINE B],IC50,[7],6 µg/mL
C1=C\CCCCN(CCc2nccc3c2[nH]c2ccccc23)CCCC/1 [MANZAMINE C],IC50,[7],3 µg/mL
O[C@]12C=C(c3nccc4c3[nH]c3ccccc34)[C@@H]3CCN(CCCC/C=C\CC1)C[C@@]31CC/C=C\CCCCN[C@H]12 [MANZAMINE J],IC50,[14],2.6 µg/mL
Oc1ccc2[nH]c3c(C4=C[C@@]5(O)CC/C=C\CCCCN6CC[C@@H]4[C@]4(C[C@@H]7/C=C\CCCCN7[C@H]45)C6)nccc3c2c1 [MANZAMINE Y],IC50,[20],2.5 µg/mL
same,IC50,[14],1.5 µg/mL
COc1ccc(CCNC(=O)c2cc3c([nH]c4ccccc43)c(C(C)=O)n2)cc1 [MARINACARBOLINE A],IC50,[2],24.4 µM
same,IC50,[3],24.4 µM
same,IC50,[4],24.4 µM
CC(=O)c1nc(C(=O)NCCc2c[nH]c3ccccc23)cc2c1[nH]c1ccccc12 [MARINACARBOLINE D],IC50,[2],15 µM
same,IC50,[3],15 µM
same,IC50,[4],15 µM
